One data set relates to Bmi-1 protein. In words: Sandwich ELISA Assay (Bmi-1 protein level in HT-1080 cells after compound treatment). In kind it is cell-based. The method in brief:
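Sandwich ELISA quantified Bmi-1 protein against recombinant standard (125–8000 pg/mL), with lysates captured overnight at 4 °C and signal by HRP/TMB at 450 nm (570 nm reference). Lysates came from HT-1080 cells incubated 40–48 h with test compounds in 0.5% DMSO.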
Background: In an ELISA, binding on a coated surface is turned into a signal by an enzyme label.

Setting [1] is: Table 1, Bmi-1 sandwich ELISA, read-out: ELISA EC50 value for Bmi-1 protein.
The mark [2] stands for this setting: read-out: ELISA EC50 value for Bmi-1 protein, Table 1, Bmi-1 sandwich ELISA.

Structures are written as SMILES. pEC50: −log10 of the molar value. Like-named read-outs stand apart in the source and are kept apart here. Where only a bound is given, the exact number is not on record here.

One may read the pEC50 as the negative decadic logarithm of the EC50, by convention in mol/L. One may read the melting point as the temperature, or range, at which the solid turns liquid. The compound `FC(F)c1nc2ccccc2n1-c1cncc(Nc2ccc(C(F)(F)F)cc2)n1` [compound 481, 6-[2-(difluoromethyl)-1H-benzimidazol-1-yl]-N-[4-(trifluoromethyl)phenyl]pyrazin-2-amine] came in with a melting point of 229 to 231 °C. The pEC50 in the data set on Bmi-1 protein (setting [1]) was 7.00 to 8.00.
In the case of `Cc1nc2ccc(F)cn2c1-c1cncc(Nc2ccc(Cl)cc2)n1` [compound 593, N-(4-chlorophenyl)-6-(6-fluoro-2-methylimidazo[1,2-a]pyridin-3-yl)pyrazin-2-amine], the melting point lay in the range of 215 to 218 °C. Besides, in the data set with Bmi-1 protein (setting [1]), the pEC50 is 8.00 to 9.00.
For `Nc1cc(Nc2ccc(OC(F)(F)F)cc2)nc(-c2c(C3CC3)nc3ccc(F)cn23)c1` [compound 367, 6-(2-cyclopropyl-6-fluoroimidazo[1,2-a]pyridin-3-yl)-N^2-[4-(trifluoromethoxy)phenyl]pyridine-2,4-diamine], in that order: 166 to 168 °C and 7.00 to 8.00.
As for `Cc1csc(Nc2cncc(-c3c(C(F)(F)F)nc4ccccn34)n2)n1` [compound 96, N-(4-methyl-1,3-thiazol-2-yl)-6-[2-(trifluoromethyl)imidazo[1,2-a]pyridin-3-yl]pyrazin-2-amine], the melting point was in the range of 317 to 319 °C. Also, the negative-log EC50 (pEC50) in the data set with Bmi-1 protein (setting [1]) is 5.52 to 7.00.
Consider `Cc1nc2ccc(F)cc2n1-c1cc(C#N)cc(Nc2ccc(OC(F)F)cc2)n1` [compound 262, 2-{[4-(difluoromethoxy)phenyl]amino}-6-(6-fluoro-2-methyl-1H-benzimidazol-1-yl)pyridine-4-carbonitrile], for which the melting point was in the range of 231 to 232 °C. Further, in the data set on Bmi-1 protein (setting [1]), the negative-log EC50 (pEC50) is 7.00 to 8.00.
As for `Cc1nc2ccc(F)cc2n1-c1cncc(Nc2ccc(C(F)(F)F)cc2)n1` [compound 228, 6-(6-fluoro-2-methyl-1H-benzimidazol-1-yl)-N-[4-(trifluoromethyl)phenyl]pyrazin-2-amine], the melting point is 243 to 245 °C. Further, the negative logarithm of the EC50 (pEC50) in the data set on Bmi-1 protein (setting [2]) is 8.00 to 9.00.
For the compound `N#Cc1cc(Nc2ccc(C(F)(F)F)cc2)nc(-n2c(C(F)F)nc3ccccc32)c1` [compound 484, 2-[2-(difluoromethyl)-1H-benzimidazol-1-yl]-6-{[4-(trifluoromethyl)phenyl]amino}pyridine-4-carbonitrile], the melting point was 225 to 227 °C. For the same compound, the pEC50 in the data set with Bmi-1 protein (setting [1]) was 7.00 to 8.00.
Taken in the same sequence, the figures for `Cc1nc2ccc(F)cc2n1-c1cncc(Nc2ccc(N)cc2)n1` [compound 558, N-[6-(6-fluoro-2-methyl-1H-benzimidazol-1-yl)pyrazin-2-yl]benzene-1,4-diamine] were 189 to 191 °C and 7.00 to 8.00.
In turn, `Nc1cc(Nc2ccc(C(F)(F)F)cc2)nc(-c2c(C3CC3)nc3ccc(F)cn23)c1` [compound 363, 6-(2-cyclopropyl-6-fluoroimidazo[1,2-a]pyridin-3-yl)-N^2-[4-(trifluoromethyl)phenyl]pyridine-2,4-diamine] gave a melting point of 160 to 162 °C. In the data set on Bmi-1 protein (setting [1]), the negative-log EC50 (pEC50) was 5.52 to 7.00.
For `Cc1nc2ccc(F)cn2c1-c1cncc(Nc2ccc(C(F)(F)F)c(F)c2)n1` [compound 310, 6-(6-fluoro-2-methylimidazo[1,2-a]pyridin-3-yl)-N-[3-fluoro-4-(trifluoromethyl)phenyl]pyrazin-2-amine], in that order: 216 to 218 °C and 7.00 to 8.00.
For `COc1ccc(Nc2cncc(-c3c(C)noc3C)n2)cc1F` [compound 637, 6-(3,5-dimethyl-1,2-oxazol-4-yl)-N-(3-fluoro-4-methoxyphenyl)pyrazin-2-amine], in that order: 158 to 159 °C and 7.00 to 8.00.
Taken in the same sequence, the figures for `Cc1nc2ccc(F)cn2c1-c1cncc(Nc2cccc(Cl)c2)n1` [compound 597, N-(3-chlorophenyl)-6-(6-fluoro-2-methylimidazo[1,2-a]pyridin-3-yl)pyrazin-2-amine] were 272 to 275 °C and 7.00 to 8.00.
In the case of `FC(F)(F)c1ccc(Nc2cncc(-c3c(C4CC4)nc4ccc(C(F)(F)F)cn34)n2)cc1` [compound 250, 6-[2-cyclopropyl-6-(trifluoromethyl)imidazo[1,2-a]pyridin-3-yl]-N-[4-(trifluoromethyl)phenyl]pyrazin-2-amine], the melting point is 240 to 241 °C. Also, the pEC50 in the data set with Bmi-1 protein (setting [2]) is 7.00 to 8.00.
In turn, `COC(=O)c1ccc(Nc2cncc(-n3c(C)nc4ccc(F)cc43)n2)cc1` [compound 556, methyl 4-{[6-(6-fluoro-2-methyl-1H-benzimidazol-1-yl)pyrazin-2-yl]amino}benzoate] gave a melting point of 198 to 200 °C. Further, the pEC50 with Bmi-1 protein (setting [1]) is 7.00 to 8.00.
Taken in the same sequence, the figures for `Fc1ccc2nc(C(F)F)c(-c3cncc(Nc4ccc(OC(F)F)cc4)n3)n2c1` [compound 473, N-[4-(difluoromethoxy)phenyl]-6-[2-(difluoromethyl)-6-fluoroimidazo[1,2-a]pyridin-3-yl]pyrazin-2-amine] were 167 to 169 °C and over 9.00.
For `N#Cc1cc(Nc2ccc(C(F)(F)F)cc2)nc(-c2c(C3CC3)nc3ccc(F)cn23)c1` [compound 346, 2-(2-cyclopropyl-6-fluoroimidazo[1,2-a]pyridin-3-yl)-6-{[4-(trifluoromethyl)phenyl]amino}pyridine-4-carbonitrile], in that order: 245 to 247 °C and 7.00 to 8.00.
For `Fc1ccc2nc(C3CC3)c(-c3cncc(Nc4ccc(C(F)(F)F)cc4)n3)n2c1` [compound 336, 6-(2-cyclopropyl-6-fluoroimidazo[1,2-a]pyridin-3-yl)-N-[4-(trifluoromethyl)phenyl]pyrazin-2-amine], in that order: 183 to 185 °C and 8.00 to 9.00.
Turning to `N#Cc1cc(Nc2ccc(OC(F)F)nc2)nc(-n2c(C3CC3)nc3c(F)cc(F)cc32)c1` [compound 478, 2-(2-cyclopropyl-4,6-difluoro-1H-benzimidazol-1-yl)-6-{[6-(difluoromethoxy)pyridin-3-yl]amino}pyridine-4-carbonitrile], the melting point fell in the range of 207 to 209 °C. Besides, the pEC50 in the data set with Bmi-1 protein (setting [1]) is 7.00 to 8.00.
Consider `CCn1nc(C)c(-c2cncc(Nc3ccc(OC(F)(F)F)cc3)n2)c1C` [compound 84, 6-(1-ethyl-3,5-dimethyl-1H-pyrazol-4-yl)-N-[4-(trifluoromethoxy)phenyl]pyrazin-2-amine], for which the melting point is 142 to 143 °C. Also, the negative logarithm of the EC50 (pEC50) with Bmi-1 protein (setting [1]) was 8.00 to 9.00.
`CCc1nc(C)cn1-c1cncc(Nc2ccc(C(F)(F)F)cc2)n1` [compound 179, 6-(2-ethyl-4-methyl-1H-imidazol-1-yl)-N-[4-(trifluoromethyl)phenyl]pyrazin-2-amine] yielded a melting point of 207 to 208 °C. Further, the pEC50 in the data set with Bmi-1 protein (setting [2]) was 5.52 to 7.00.
`CCc1nc2ccc(F)cc2n1-c1cncc(Nc2ccc(C)cc2)n1` [compound 622, 6-(2-ethyl-6-fluoro-1H-benzimidazol-1-yl)-N-(4-methylphenyl)pyrazin-2-amine] returned a melting point of 223 to 226 °C. In the data set with Bmi-1 protein (setting [1]), the pEC50 is 8.00 to 9.00.
Taken in the same sequence, the figures for `N#Cc1cc(Nc2ccc(C(F)(F)F)nc2)nc(-c2c(C(F)F)nc3ccc(F)cn23)c1` [compound 469, 2-[2-(difluoromethyl)-6-fluoroimidazo[1,2-a]pyridin-3-yl]-6-{[6-(trifluoromethyl)pyridin-3-yl]amino}pyridine-4-carbonitrile] were 285 to 288 °C and 7.00 to 8.00.
On to `Cc1nc2ccc(F)cn2c1-c1cc(N)cc(Nc2ccc(OC(F)F)c(F)c2)n1` [compound 315, N^2-[4-(difluoromethoxy)-3-fluorophenyl]-6-(6-fluoro-2-methylimidazo[1,2-a]pyridin-3-yl)pyridine-2,4-diamine], for which the melting point lay within 182 to 183 °C. Besides, in the data set on Bmi-1 protein (setting [1]), the pEC50 was 8.00 to 9.00.
For `[O-][n+]1cc(Nc2ccc(C(F)(F)F)cc2)nc(-c2c(C3CC3)nn3ccc(F)cc23)c1` [compound 536, 6-(2-cyclopropyl-5-fluoropyrazolo[1,5-a]pyridin-3-yl)-N-[4-(trifluoromethyl)phenyl]pyrazin-2-amine 4-oxide], in that order: 183 to 186 °C and 7.00 to 8.00.
Taken in the same sequence, the figures for `Fc1cc(Nc2cncc(-n3c(C(F)F)nc4ccccc43)n2)ccc1OC(F)F` [compound 483, N-[4-(difluoromethoxy)-3-fluorophenyl]-6-[2-(difluoromethyl)-1H-benzimidazol-1-yl]pyrazin-2-amine] were 220 to 222 °C and 7.00 to 8.00.
For `CC(=O)n1nc(C)c(-c2cncc(Nc3ccc(C(F)(F)F)cc3)n2)c1C` [compound 277, 1-[3,5-dimethyl-4-(6-{[4-(trifluoromethyl)phenyl]amino}pyrazin-2-yl)-1H-pyrazol-1-yl]ethanone], in that order: 199 to 200 °C and 5.52 to 7.00.
In turn, `Cc1nn(CCn2ncnn2)c(C)c1-c1cncc(Nc2ccc(C(F)(F)F)cc2)n1` [compound 352, 6-{3,5-dimethyl-1-[2-(2H-tetrazol-2-yl)ethyl]-1H-pyrazol-4-yl}-N-[4-(trifluoromethyl)phenyl]pyrazin-2-amine] registered a melting point of 138 to 139 °C. In addition, the pEC50 in the data set on Bmi-1 protein (setting [2]) was 8.00 to 9.00.
As to `CCc1nc2ccc(F)cc2n1-c1cncc(Nc2ccc(C(F)(F)F)cc2)n1` [compound 259, 6-(2-ethyl-6-fluoro-1H-benzimidazol-1-yl)-N-[4-(trifluoromethyl)phenyl]pyrazin-2-amine], the melting point was 267 to 269 °C. The pEC50 in the data set on Bmi-1 protein (setting [1]) was 8.00 to 9.00.
Take `Cc1nc2ncc(F)cn2c1-c1cc(C#N)cc(Nc2ccc(OC(F)F)c(F)c2)n1` [compound 439, 2-{[4-(difluoromethoxy)-3-fluorophenyl]amino}-6-(6-fluoro-2-methylimidazo[1,2-a]pyrimidin-3-yl)pyridine-4-carbonitrile]: the melting point fell in the range of 268 to 270 °C. The pEC50 in the data set on Bmi-1 protein (setting [1]) is 7.00 to 8.00.

The record behind these values is patent US10584115B2, “Substituted pyridine and pyrazine BMI-1 inhibitors” (PTC Therapeutics, Inc., priority 2013, dated 2020).
